Experimental data reported in PubChem BioAssay (NCI).
Several values for one entry are separate records, joined by “and”; a condition that tells them apart may be missing. Equal values may be shown once.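 96-well plates; 48 h exposure; 5 concentrations. Endpoints by linear interpolation between flanking doses. Not reached: highest tested concentration assigned. Here, GI50 denotes the concentration required for 50% inhibition of growth. TGI: total growth inhibition.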

Columns and labels:
Assay in all cases: DTP human tumour cell line panel, 48 h
[1] = system: MCF7 breast
[2] = system: EKVX NSCLC
[3] = system: CCRF-CEM leukemia
[4] = system: NCI-H226 lung
[5] = system: NCI-H460 lung
[6] = system: HT29 colon
[7] = system: SW-620 colon
[8] = system: PC-3 prostate
[9] = system: NCI/ADR-RES ovarian
[10] = system: NCI-H522 lung

Structure (SMILES) | TGI [1] | TGI [2] | TGI [3] | TGI [4] | TGI [5] | TGI [6] | TGI [7] | TGI [8] | TGI [9] | TGI [10] | GI50 [1] | GI50 [2] | GI50 [3] | GI50 [4] | GI50 [5] | GI50 [7] | GI50 [8] | GI50 [9] | GI50 [10]
CCn1c(CCCc2nc3c([nH]2)c(=O)n(C)c(=O)n3C)nc2c1c(=O)n(C)c(=O)n2C | > 100 µM | > 100 µM | > 100 µM | 30.6 µM | > 100 µM | > 100 µM | > 100 µM | > 100 µM | > 100 µM | > 100 µM |  |  |  |  |  |  |  |  | 
CCCCCCc1ccc(CCCCCCCC(=O)O)o1 | > 100 µM | > 100 µM | > 100 µM | > 100 µM | > 100 µM | > 100 µM | > 100 µM | > 100 µM | > 100 µM |  |  |  |  |  |  |  |  |  | 
N=c1ncn(C/C=C/c2ccccc2)c2nc[nH]c12 | > 100 µM | > 100 µM |  |  | > 100 µM | > 100 µM | > 100 µM | > 100 µM | > 100 µM | > 100 µM |  |  |  |  |  |  |  |  | 
Cc1ccc(C)n1-c1ccccc1C1C=Cn2c(=O)oc3c(OC(C)C)c(OC(C)C)c(O)c1c32 (stereo unspecified) | > 100 µM | > 100 µM | > 100 µM | 36.1 µM | > 100 µM | > 100 µM | 75.6 µM | 93.9 µM | > 100 µM | 75.5 µM |  |  |  |  |  |  |  |  | 
O=[N+]([O-])c1c(O)c2nonc2c2nn(-c3ccccc3)nc12 | > 100 µM | > 100 µM | > 100 µM | 79.1 µM | > 100 µM | > 100 µM | > 100 µM | > 100 µM | > 100 µM | > 100 µM |  |  |  |  |  |  |  |  | 
O=C(CC(=O)N1N=C(c2ccccc2)C(N=Nc2ccc(S(=O)(=O)CCOS(=O)(=O)O)cc2)C1=O)Nc1ccc(Cl)cc1 (stereo unspecified) | > 100 µM | > 100 µM | > 100 µM | > 100 µM | > 100 µM | > 100 µM |  | > 100 µM | > 100 µM | > 100 µM |  |  |  |  |  |  |  |  | 
Cc1cc2nc3c(C#N)c(C)c(CCCl)c(Cl)n3c2cc1C | 8.64 µM | 35.6 µM | 7.38 µM | 8.17 µM | > 36.6 µM | 5.91 µM | 5.79 µM | 12.4 µM | 21.5 µM | > 100 µM |  |  |  |  |  |  |  |  | 
Cc1ccc(/C=c2\c(=O)[nH]c3nc4ccccc4c(=O)n23)cc1 | > 100 µM |  | > 100 µM |  |  |  | 48.8 µM | > 100 µM | > 100 µM | > 100 µM |  |  |  |  |  |  |  |  | 
CCCN=C1NC(C)=CSC(Nc2ccccc2)=C1C#N | > 100 µM |  |  |  |  |  | > 100 µM | > 100 µM | > 100 µM | > 100 µM |  |  |  |  |  |  |  |  | 
O=C1CCCC1CC(CN1CCOCC1)Sc1nnnn1-c1ccccc1 (stereo unspecified) | > 100 µM | > 100 µM | > 100 µM | > 100 µM |  | > 100 µM | > 100 µM | > 100 µM | > 100 µM | > 100 µM |  |  |  |  |  |  |  |  | 
Cc1ccc2sc3c(NCCCN)nc4ccccc4c3c(=O)c2c1 | 3.36 µM | 4.09 µM | 5.61 µM | 3.66 µM | 3.56 µM |  | 3.54 µM | 3.4 µM | 3.45 µM |  | 1.77 µM | 1.89 µM | 2.32 µM | 1.84 µM | 1.84 µM | 1.79 µM | 1.71 µM | 1.8 µM | 
COc1cc2nc(-c3cccs3)nc(N3CCN(c4ccccc4)CC3)c2cc1OC | > 100 µM | > 100 µM |  | > 100 µM | > 100 µM | > 100 µM | > 100 µM | > 100 µM | > 100 µM | > 100 µM |  |  |  |  |  |  |  |  | 
O/N=C1\C/C(=N\O)c2c(Br)sc(Br)c21 | > 100 µM | > 100 µM | 37.3 µM | > 100 µM | > 100 µM | > 100 µM | 72.7 µM |  | > 100 µM | 32.6 µM |  |  |  |  |  |  |  |  | 
O=c1c(O)c(-c2ccccc2)oc2c(CP(=O)(O)O)cccc12 | > 100 µM | > 100 µM | > 100 µM |  | > 100 µM |  |  | > 100 µM |  | > 100 µM |  |  |  |  |  |  |  |  | 
Cc1nc(N)c(N2CCN(S(=O)(=O)N(Cc3ccccc3)Cc3ccccc3)CC2)c(=O)[nH]1 | > 100 µM | > 100 µM | > 100 µM | > 100 µM | > 100 µM | 63.3 µM | > 100 µM | 46.5 µM | > 100 µM |  |  |  |  |  |  |  |  |  | 
CCOC(=O)c1ccc2nc3n(c2c1)C(c1c(F)cccc1F)SC3 (stereo unspecified) | > 100 µM | > 100 µM | > 100 µM | 87 µM | > 100 µM | > 100 µM | > 100 µM | > 100 µM | > 100 µM |  |  |  |  |  |  |  |  |  | 
N#Cc1ccc(-c2ccc(Cl)cc2)n(C2OC(CO)C(O)C(O)C2O)c1=S (stereo unspecified) | > 100 µM | > 100 µM | > 100 µM | > 100 µM | > 100 µM | > 100 µM | > 100 µM | > 100 µM |  | > 100 µM |  | > 100 µM and 33.7 µM | > 100 µM |  |  |  |  |  | > 100 µM and 15.5 µM
O=C1Sc2ccccc2C(=O)N2CCSC12 (stereo unspecified) |  |  | > 100 µM |  | > 100 µM |  | > 100 µM |  |  |  |  |  |  |  |  |  |  |  | 
CCOC(=O)c1nc2ccccc2nc1Nc1ccc(C(=O)OC)s1 | > 100 µM | > 100 µM | > 100 µM |  | > 100 µM | > 100 µM | > 100 µM | > 100 µM | > 100 µM | > 100 µM |  |  |  |  |  |  |  |  | 
CC1CN(c2cc3c(cc2F)c(=O)c(C(=O)O)cn3-c2ccc(N3CCN(C)CC3)cn2)CC(C)N1 (stereo unspecified) | > 100 µM | > 100 µM | > 100 µM | > 100 µM | > 100 µM | > 100 µM | > 100 µM | > 100 µM | > 100 µM |  |  |  |  |  |  |  |  |  | 
COC(=O)/C=C1\C(CO[Si](C)(C)C(C)(C)C)OC(n2cc(C)c(=O)n(C)c2=O)C1O[Si](C)(C)C(C)(C)C (stereo unspecified) | > 100 µM | > 100 µM | > 100 µM | > 100 µM |  | > 100 µM | > 100 µM | > 100 µM | > 100 µM | > 100 µM |  |  |  |  |  |  |  |  | 
